Experimental findings from patent US20060178311A1, “Control of lactation” (Hannah Research Institute, priority 2003, published 2006) are described below.

Ends that are not written are not given here.

This test relates to mammary acini from tissue of lactating mice. Put plainly: Mammary acini culture bioassay: secretion of [3H]leucine-labelled protein. It counts as cell-based, mouse. Particulars: 0.01-10.0 μM, singly or in combination, 2 hours. On the procedure:
Mammary cells were prepared from tissue of lactating mice by collagenase digestion according to the method of K Hendry, K Simpson, K Nicholas & C Wilde. Journal of Molecular Endocrinology 21: 169-177 (1998). The resultant suspension of mammary acini consisted predominantly of groups of 50-200 cells, and was cultured in medium (Medium 199/Ham's F12: 50:50 v/v) containing insulin (5 μg/ml), hydrocortisone (0.1 μg/ml) and prolactin (1 μg/ml). Culture density was 1.5×10^6 cells/ml, and cells were maintained at 37° C. in an atmosphere of 5% CO2 in air. Protein synthesis and secretion were measured by continuous labelling with L-[4.5-3H]leucine ([…]; 10-20 μCi/ml) for 2 hours in the presence or absence of milk fractions (at concentrations of 0.2-4.0 μg/ml) or synthetic peptides (0.01-10 μM). […] Radiolabel incorporation was measured by precipitation with trichloroacetic acid (final concentration 10% w/v). […]
The amount of radiolabelled protein secreted by acini in the presence of milk extracts or synthetic peptides was expressed as a percentage of that produced by the cells to which no milk fraction or peptide was added. […]
Protein secretion was measured in mammary acini cultures in the presence and absence of synthetic peptides. […]

Turning to RPKHPIKHQG [Peptide A], the “effect of synthetic peptides on protein secretion” value is reported as “inhibitory action”.

In the case of “AVAVSQEAN (also: C-terminal cysteine) [Peptide B, nine amino acid synthetic peptide]”, the “effect of synthetic peptides on protein secretion” value is “stimulatory effect”.
